Experimental data published in US20240352533A1, “Monocarboxylic Acid Transporter 4 as a Biomarker for Hypoxia Driven Tumor Growth and Treatment” (NantBio, Inc., priority 2023, published 2024).

Test system: Ishikawa cells
Experiment: Tumorsphere growth with and without Mct-4 overexpression
Assay type: cell-based
Details: 72 hr
Method: After 18 hr, 10× drug was added, and after 72 hr, plates were imaged.

## Cc1cc(-c2nc(-c3ccc(OC(F)(F)F)cc3)no2)nn1Cc1ccnc(N2CCN(C3CC3)CC2)c1 [Bay87-2243]
Ishikawa cells, 384-well round bottom
  tumorsphere growth: tumorsphere growth inhibition
Mct-4 overexpressing Ishikawa cells
  tumorsphere growth inhibition under Mct-4 overexpression: Mct-4 overexpression reverses tumorsphere growth inhibition
